The values below are quoted from earlier work in patent publication WO2011103442A2, “Synthesis of the potent immunosuppressant agents dalesconol a and b” (Columbia University in the City of New York, priority 2010, dated 2011).

≈ marks a conversion by molar mass, not a printed value.

The conditions of data set [1]: for IC50, immunosuppressive activity: as repeated in the Discussion.
The test system of data set [2] is ConA-induced proliferation of mouse spleen cells. The note with it: in vitro.
A further data set deals with acetylcholinesterase (Homo sapiens, UniProt P22303).
For data set [3] the following is noted: compared with cyclosporin A.

acetylcholinesterase, sequence (P22303 32-614): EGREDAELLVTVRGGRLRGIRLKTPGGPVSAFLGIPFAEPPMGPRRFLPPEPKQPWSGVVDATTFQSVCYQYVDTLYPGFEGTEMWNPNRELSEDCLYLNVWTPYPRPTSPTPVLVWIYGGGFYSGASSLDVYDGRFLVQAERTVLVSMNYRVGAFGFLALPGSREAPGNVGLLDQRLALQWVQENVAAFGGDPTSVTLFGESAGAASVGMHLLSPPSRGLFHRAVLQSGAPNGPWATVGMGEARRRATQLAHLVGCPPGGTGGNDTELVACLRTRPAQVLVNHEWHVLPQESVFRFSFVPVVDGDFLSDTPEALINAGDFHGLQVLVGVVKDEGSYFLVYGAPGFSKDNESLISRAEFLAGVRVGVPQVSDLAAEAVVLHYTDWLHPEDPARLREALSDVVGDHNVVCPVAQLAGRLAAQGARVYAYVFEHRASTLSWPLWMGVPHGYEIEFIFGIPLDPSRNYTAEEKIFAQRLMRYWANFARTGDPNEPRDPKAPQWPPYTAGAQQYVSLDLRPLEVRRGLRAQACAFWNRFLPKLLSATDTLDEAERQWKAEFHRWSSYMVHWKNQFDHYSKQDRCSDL

For cyclosporin A [reference compound], the “IC50, immunosuppressive activity” value in data set [1] was 6e-05 ng/mL.

Turning to `O=C1CC2CC(=O)c3c(O)cccc3C23C(=C2C=CC(=O)c4c(O)ccc3c42)c2cccc(O)c21` (stereo not drawn) [dalesconol A], the “selectivity factor, activity versus cytotoxic effects” value in data set [2] is reported as “greater than 500”. Besides, the acetylcholinesterase inhibition entry on acetylcholinesterase was “potent acetylcholinesterase inhibitor”. Besides, the “background cytotoxicity relative to cyclosporin A” value in data set [3] is “significantly reduced background cytotoxicity”. The “IC50, immunosuppressive activity” value in data set [1] is 0.00016 ng/mL (≈ 0.000346 nM). For the same compound, in data set [1] (racemic mixture), the “immunosuppressive potency of racemic mixture versus separated enantiomers” value is “more potent than their separated enantiomers”.
